Reference: patent publication US4317770A, “D-amino acid analogs of beta-endorphin” (Hoffmann-La Roche Inc., priority 1977, dated 1982)
“Also recorded” adds a separate entry of the source.

Experiments:
mice [1] = assay: analgesic potency in mice, tail-flick method, icv injection; format: in vivo, mouse; details: for AD50 / Relative Potency (analgesic potency) / analgesic activity: mice, tail-flick; for AD50: 95% confidence limits in parentheses; for Relative Potency (analgesic potency): calculated on molar basis using the AD50 of βc-endorphin as 100%; for order of activity in the mouse tail flick method: human endorphin analogs vs camel endorphin analogs, route not stated
Description: (§1) The analgesic properties of β-endorphin and its analogs were also assessed in mice by the tail-flick method of D'Amour and Smith, supra. The peptides, dissolved in saline, were injected either icv in a volume of 5 μl, according to the method described by Haley and McCormick, Brit. J. Pharmacol. 12, 12 (1957) or iv via the tail vein. To evaluate this analgesic response, a control latency (T0) was obtained from the mean of two latencies determined prior to drug injections, and the test latencies (T1) were determined at various times after injection for each animal. "Percent analgesic" was calculated as [(T1 -T0)/[…]]×100, where the cut off time (T2) was 10 sec.

[2] = cited from earlier work; for in vivo analgesic activity (duration): injected intracranially / centrally
[3] = tested on: myenteric plexus longitudinal muscle preparation from guinea pig ileum; assay: opiate activity, guinea pig ileum assay (electrically stimulated); format: cell-based; details: for IC50: in vitro; for Relative Potency: relative to βc-endorphin = 100; for order of activity in the guinea pig ileum assay: human endorphin analogs vs camel endorphin analogs
Description: (§2) The opiate activities of the analogs relative to βc -endorphin were measured in vitro in the guinea pig ileum (Brit. J. Pharmacol. 39, 398 (1970)) and in vivo by icv and iv injections using the tail-flick method (D'Amour and Smith, J. Pharmacol. Exp. Ther. 72,74 (1941). The results are summarized in Tables 2 and 3.
The opiate activity was assayed in vitro by electrically stimulated myenteric plexus longitudinal muscle preparation from guinea pig ileum by the method of Kosterlitz et al., supra.

mice [4] = assay: analgesic potency in mice, tail-flick method, iv injection; format: in vivo, mouse; details: for inhibition of tail-flick response: iv
Description: as §2, §1

[5] = injected into the peripheral system; cited from earlier work
leucine aminopeptidase = details: compared with enkephalin; cited from earlier work

Question: With `CN1CC[C@]23c4c5ccc(O)c4O[C@H]2[C@@H](O)C=C[C@H]3[C@H]1C5.O=S(=O)(O)O` [Morphine sulfate, reference compound] as the molecule, how does the AD50 (mice [1]; icv) read?
Answer: Its AD50 is 0.42 (0.36-0.49) μg/25 g mouse.

Question: With `CC(C)C[C@H](NC(=O)[C@H](Cc1ccccc1)NC(=O)CNC(=O)CNC(=O)[C@@H](N)Cc1ccc(O)cc1)C(=O)O` [enkephalin] as the molecule, how does the “in vivo analgesic activity (duration)” value [2] read?
Answer: Its value is “short duration”.

Question: With [D-Ala^2 ]-enkephalin as the molecule, how does the “in vivo analgesic activity (duration)” value [2] read?
Answer: Its value is “long-lasting analgesia”.

Question: With [D-Ala^2 ]-β-enkephalinamide as the molecule, how does the “in vivo analgesic activity (duration)” value [2] read?
Answer: Its value is “long-lasting analgesia”.

Question: And the “analgesic activity compared with enkephalin” value ([2]; relative to enkephalin, route not stated at the place)?
Answer: Its value is “greater analgesic activity”.

Question: Which results are given for “[D-Ala^2 ]-βc -endorphin [[D-Ala^2]-βc -EP]”?
Answer: activity in in vitro assay relative to parent molecule ([3]; guinea pig ileum): 43%; IC50 ([3]; guinea pig ileum): 63 nM; Relative Potency [3]: 43; Relative Potency (analgesic potency) (mice [1]): 100.0%; Relative Potency (analgesic potency) (mice [1]; listed as [D-Ala^2 ]-βc -endorphin): 100%; antagonism of analgesic response by naloxone (mice [1]; icv, doses of 0.11 to 0.42 μg): blocked by naloxone; duration of analgesic response (mice [1]; icv, doses of 0.11 to 0.42 μg): 30 to 90 min; antagonism of analgesic response by naloxone (mice [1]; icv, higher dose): also blocked by naloxone; duration of response at higher dose (mice [1]; icv, higher dose): prolonged; analgesic activity (mice [1]; icv): little alteration in analgesic activity; analgesic activity (mice [1]; icv, listed as [D-Ala^2 ]-β-endorphin): most significant analgesic activity; also recorded: equipotent to βc -endorphin; also recorded: dose-related increase in analgesic response; AD50 (mice [1]; icv): 0.11 (0.08-0.17) μg/25 g mouse; inhibition of tail-flick response (mice [4]; 25.5 mg/kg): not active

Question: For [D-Ala^2 ]-βh -endorphin, which “order of activity in the guinea pig ileum assay” value [3] is on record?
Answer: The value was “same order of activity”.

Question: What about the “order of activity in the mouse tail flick method” value (mice [1]) of the same molecule?
Answer: Its value is “same order of activity”.

Question: What does the source list for “[D-Met^5 ]-βc -endorphin [[D-Met^5]-βc -EP]”?
Answer: IC50 ([3]; guinea pig ileum): 660 nM; Relative Potency [3]: 4; Relative Potency (analgesic potency) (mice [1]): 1.0%; analgesic activity (mice [1]; icv): still possesses analgesic activity; AD50 (mice [1]; icv): 11.48 (7.17-18.36) μg/25 g mouse; inhibition of tail-flick response (mice [4]; even at 120 mg/kg): not active

Question: For [D-Met^5 ]-βh -endorphin, which “order of activity in the guinea pig ileum assay” value [3] is on record?
Answer: The value was “same order of activity”.

Question: What about the “order of activity in the mouse tail flick method” value (mice [1]) of the same molecule?
Answer: Its value is “same order of activity”.

Question: Which results are given for “[D-Phe^4 ]-βc -endorphin [[D-Phe^4]-βc -EP]”?
Answer: IC50 ([3]; guinea pig ileum): 670 nM; Relative Potency [3]: 4; Relative Potency (analgesic potency) (mice [1]): < 0.3%; behavioural effect (hyperreactivity) (mice [1]; icv, doses up to 43 μg): hyperreactivity to touch or vocal stimulation; inhibition of tail-flick response (mice [1]; icv, doses up to 43 μg): not active; AD50 (mice [1]; icv): > 43 μg/25 g mouse

Question: For [D-Phe^4 ]-βh -endorphin, which “order of activity in the guinea pig ileum assay” value [3] is on record?
Answer: The value was “same order of activity”.

Question: What about the “order of activity in the mouse tail flick method” value (mice [1]) of the same molecule?
Answer: The value was “same order of activity”.

Question: Which IC50 ([3]; guinea pig ileum) does the source give for “[D-Tyr^1 ]-βc -endorphin [[D-Tyr^1]-βc -EP]” here?
Answer: The IC50 was 2900 nM.

Question: And the “Relative Potency” value [3]?
Answer: Its value is no more than 1.

Question: What about the “Relative Potency (analgesic potency)” value (mice [1]) of the same molecule?
Answer: The value was 0.5%.

Question: What about the AD50 (mice [1]; icv) of the same molecule?
Answer: The AD50 was 22.5 (13.4-37.8) μg/25 g mouse.

Question: With [D-Tyr^1 ]-βh -endorphin as the molecule, how does the “order of activity in the guinea pig ileum assay” value [3] read?
Answer: The value was “same order of activity”.

Question: What about the “order of activity in the mouse tail flick method” value (mice [1]) of the same molecule?
Answer: The value was “same order of activity”.

Question: What does the source list for β-endorphin?
Answer: in vivo analgesic activity (duration) [2]: long lasting; duration of action (mice [4]; intravenous, comparison of β-endorphin with D-Ala^2 analog): longer than its D-Ala^2 analog; AD50 (mice [4]; iv injection): 9.4 mg/kg; analgesic activity after iv injection (mice [4]; iv injection): potent analgesic; in vivo analgesic activity, peripheral injection [5]: displays in vivo analgesic activity when injected into the peripheral system

Question: Which “resistance to attack by leucine aminopeptidase” value (leucine aminopeptidase) does the source give for “βc -endorphin: β-endorphin having a sequence derived from camel; synthesized as control (YGGFMTSEKSQTPLVTLFKNAIIKNAHKKGQ; Beta-endorphin; UniProt P01203 1-31, looked up) [reference compound]” here?
Answer: Its value is “substantially more resistant to attack by leucine aminopeptidase than is enkephalin”.

Question: What about the IC50 ([3]; guinea pig ileum) of the same molecule?
Answer: Its IC50 is 27 nM.

Question: What about the “Relative Potency” value [3] of the same molecule?
Answer: Its value is 100.

Question: And the “Relative Potency (analgesic potency)” value (mice [1])?
Answer: Its value is 100.0%.

Question: And the “analgesic activity” value (mice [1]; icv)?
Answer: The value was “much more active than morphine”.

Question: And the AD50 (mice [1]; icv)?
Answer: The AD50 was 0.11 (0.07-0.17) μg/25 g mouse.
